These results are taken from patent US20110177541A1, “METHOD FOR ADJUSTING THE COAGULATION TIME IN CALIBRATOR OR CONTROL PLASMAS” (DIAGNOSTICA STAGO, priority 2010, published 2011).

This test deals with plasma coagulation time (PT). The test can be described thus: Prothrombin time (PT) in STA NeoCl+ on treated (defrosted, pooled, excipient-supplemented, filtered) plasma. It is filed as biochemical. The procedure: The plasma bags were defrosted at 37° C.±2° C. in a defroster; once defrosted, the plasma was stabilized at 37° C.±2° C. for 30 minutes.
The bags were then pooled in a stainless steel container and the plasma was then homogenized using a magnetic stirrer.
The lyophilization excipients (lactose, saccharose, HEPES buffer) were added, stirring until dissolution was complete.
A sample was taken to measure the pH, the conductivity and to determine the PT on a STA Neo Cl+ apparatus using STA-R (Diagnostica STAGO).
The plasma was filtered on a CRK1 cartridge (Millipore) and a sample was taken to determine the PT in the NeoCl+ after filtration. […]
A sample of each point was tested in the STA NeoCl+; a range resulting from the addition of different concentrations of F VIIa was produced for each level as a function of the coagulation times obtained.
For each point, the concentration of added factor VIIa was determined as a function of the times on a reference graph obtained for fresh plasmas.
The F VIIa was then added, and homogenized and a sample of each point was taken in order to measure the pH, the conductivity and to determine the PT in the STA NeoCl+ using STA-R to verify that the desired times were indeed obtained, then each product was distributed and lyophilized.
In the table below, a range for procoagulant factor F VIIa has been produced for a range of concentrations of rivaroxaban.

For the molecule `O=C(NC[C@H]1CN(c2ccc(N3CCOCC3=O)cc2)C(=O)O1)c1ccc(Cl)s1` [rivaroxaban], the “PT divergence of treated plasma with respect to fresh plasma” value (500 ng/mL of rivaroxaban, FIG. 1) came to 13 s. Besides, the “Time in NeoCl+” value (rivaroxaban 25 ng/mL, FVIIa 0 IU/mL) turned out to be 14.4 s; the “Time in NeoCl+” value (rivaroxaban 25 ng/mL, FVIIa 0.1 IU/mL) worked out at 13.7 s; the “Time in NeoCl+” value (rivaroxaban 50 ng/mL, FVIIa 0 IU/mL) was determined as 15.3 s; the “Time in NeoCl+” value (rivaroxaban 50 ng/mL, FVIIa 0.2 IU/mL) is 14.3 s; the “Time in NeoCl+” value (rivaroxaban 50 ng/mL, FVIIa 0.3 IU/mL) was 14.6 s; the “Time in NeoCl+” value (rivaroxaban 50 ng/mL, FVIIa 0.4 IU/mL) stood at 14.6 s. Moreover, the “Time in NeoCl+” value (rivaroxaban 200 ng/mL, FVIIa 0 IU/mL) was 21.2 s; the “Time in NeoCl+” value (rivaroxaban 200 ng/mL, FVIIa 0.1 IU/mL) stood at 19.8 s; the “Time in NeoCl+” value (rivaroxaban 200 ng/mL, FVIIa 0.2 IU/mL) amounted to 19 s; the “Time in NeoCl+” value (rivaroxaban 250 ng/mL, FVIIa 0 IU/mL) was 23.5 s; the “Time in NeoCl+” value (rivaroxaban 250 ng/mL, FVIIa 0.2 IU/mL) came out at 21 s; the “Time in NeoCl+” value (rivaroxaban 250 ng/mL, FVIIa 0.3 IU/mL) turned out to be 20.3 s. The “Time in NeoCl+” value runs as follows: (rivaroxaban 250 ng/mL, FVIIa 0.4 IU/mL) 19.9 s; (rivaroxaban 500 ng/mL, FVIIa 0 IU/mL) 32 s; (rivaroxaban 500 ng/mL, FVIIa 0.1 IU/mL) 29.9 s; (rivaroxaban 500 ng/mL, FVIIa 0.2 IU/mL) 28.4 s; (rivaroxaban 500 ng/mL, FVIIa 0.3 IU/mL) 27.5 s; (rivaroxaban 500 ng/mL, FVIIa 0.4 IU/mL) 26.8 s. In addition, the “Time in NeoCl+” value by setting is: (rivaroxaban 800 ng/mL, FVIIa 0 IU/mL) 43.5 s; (rivaroxaban 800 ng/mL, FVIIa 0.2 IU/mL) 38.3 s; (rivaroxaban 800 ng/mL, FVIIa 0.3 IU/mL) 36.6 s.
